Test results from PubChem BioAssay AID489032 (Sanford-Burnham Center for Chemical Genomics, 2010).
Calls of active or inactive are those of the source. No rule for the calls is given here.

These compounds were tested on UPR adaptive arm reporter cells, luciferase luminescence (assay: activators of adaptive UPR signalling, dose response, cell-based, luciferase luminescence (AID 489032)).

| Structure (SMILES) | EC50 |
| --- | --- |
| O=c1[nH]c(CSc2ncnc3sc(-c4ccccc4)cc23)nc2ccccc12 | > 80 µM (inactive) |
| CCNC(=O)c1c(NC(=O)c2cc(-c3cc(C)ccc3O)n[nH]2)sc2c1CCCC2 | > 80 µM (inactive) |
| Clc1ccc(-c2ccc(/C=N/Nc3nncc(-c4ccccc4)n3)o2)cc1 | > 80 µM (inactive) |
| CCCCCCCCCCOC(=O)Cn1c(COc2ccc(OC)cc2)[n+](C)c2ccccc21 | > 80 µM (inactive) |
| COc1cccc(C(=O)Oc2cc3c4c(c2)C(C)=CC(C)(C)N4C(=O)C3=O)c1 | 19.6 µM |
| O=C(Nc1ccc(Cl)cc1)Nc1ccccc1Sc1ncc([N+](=O)[O-])s1 | > 80 µM (inactive) |
| CN(C)CC/C=C1\c2ccc(F)cc2Sc2cc(F)c(Cl)cc21 | 15.8 µM |
| COc1ccc(-c2ccc3c(c2)S(=O)(=O)c2cccc(C(=O)NCCOc4ccccc4Cl)c2C3=O)cc1OC | > 80 µM (inactive) |
| O=C(Nc1ccc(O)c2c(=O)cc(-c3cccc(Cl)c3)oc12)c1cccc(Cl)c1 | 20.9 µM (inactive) |
| CCn1cc(C(=O)NC(=S)Nc2sc3c(c2C(=O)OC)CCCCCC3)cn1 | > 80 µM (inactive) |
| COc1ccc(-c2csc(NC(=S)NC(=O)/C=C/c3ccccc3)n2)cc1Br | 13.2 µM |
| CCOc1ccc(-n2nc3ccc(NC(=O)c4ccc5c(c4)OCCO5)cc3n2)cc1 | > 80 µM (inactive) |
| Cc1ccc(NC(=O)c2c(C)nc3sc(C(=O)NC4CCCC4)c(N)c3c2-c2ccco2)c(C)c1 | 48.4 µM (inactive) |
| COc1ccc(-c2csc3nc(-c4ccc(C)cc4)oc(=O)c23)cc1OC | > 80 µM (inactive) |
| COc1ccccc1-c1sc2cc3c(cc2c1-c1ccc(OCCN2CCCCC2)cc1)OCO3 | > 80 µM (inactive) |
| CCCCCc1nc2c(c(=O)c3ccccc3n2C)c(=O)n1C1CCCCCC1 | > 80 µM (inactive) |
| CN(C)S(=O)(=O)c1ccc(N2CCCC2)c(C(=O)Nc2nc3ccccc3s2)c1 | 15.7 µM |
| CC1=C(/C=C/C(C)=C/C=C/C(C)=C/C(=O)Nc2ccc(O)cc2)C(C)(C)CCC1 | > 80 µM (inactive) |
| CC(C)CN=C(NS(=O)(=O)c1ccccc1)C(Cl)(Cl)Cl | > 80 µM (inactive) |
| O=Cc1cc2ccccc2nc1SCc1ccc(Cl)cc1 | 40.2 µM (inactive) |
| Oc1ccc(-c2nc3ccc4ccccc4c3c3c2CCC3)cc1O | 28.4 µM (inactive) |
| COc1ccc(N2CCN(Cc3nc(N)nc(Nc4ccc(C)c(Cl)c4)n3)CC2)cc1 | 18.4 µM |
| COc1ccc(-c2nn(-c3ccccc3)cc2/C=C/C(=O)OCC(=O)Nc2cccc(C#N)c2)cc1 | 11.9 µM |

| Structure (SMILES) | EC50 |
| --- | --- |
| Cc1cc(NC(=O)/C(C#N)=C/c2ccc(-c3ccc(SC(F)F)cc3)o2)n(-c2ccccc2)n1 | > 80 µM (inactive) |
| CN1/C(=C\C(=O)COC(=O)c2ccc(O)c(O)c2)C(C)(C)c2ccccc21 | > 80 µM (inactive) |
| Cc1c(NC(=O)CSc2ccc(Cl)cc2)cccc1-c1nc2cc(Cl)ccc2o1 | > 80 µM (inactive) |
| COc1cc2[nH]c3c(N4CCN(c5ccc(Cl)cc5)CC4)ncnc3c2cc1OC | > 80 µM (inactive) |
| CCCNC(=O)c1ccc2c(=O)c(O)c(-c3ccc(OC)cc3)[nH]c2c1 | > 80 µM (inactive) |
| O=[N+]([O-])c1ccc(Cl)c(-c2ccc(/C=N/c3c(-c4ccco4)nc4ccccn34)o2)c1 | 39.3 µM (inactive) |
| CCCCCCCCCn1c2c(c(=N)c3c1CCC3)CCCC2 | 25.6 µM (inactive) |
| Cc1nc(NC(=O)c2cc3c(C)nn(-c4ccccc4)c3s2)sc1C(=O)Nc1ccccc1 | 41.3 µM (inactive) |
| Cc1cc(C)c2c(c1)/C(=c1/sc3n(c1=O)CN(c1ccccc1)CN=3)C(=O)N2 | 19.2 µM |
| Cc1sc(NC(=O)c2cc(-c3ccc(Cl)cc3)nc3ccccc23)c(C(N)=O)c1C | 23.9 µM (inactive) |
| C/C(CCC12CC3CC(CC(C3)C1)C2)=N\NC(N)=S | 27.3 µM (inactive) |
| COc1cc(NC(=O)c2cccs2)ccc1NC(=O)c1cc2ccccc2o1 | > 80 µM (inactive) |
| Cc1ccc(Nc2nc3ccc(Cl)cc3n3cnnc23)cc1F | > 80 µM (inactive) |
| CCC(=O)Nc1nnc(SCC(=O)c2ccc3c(c2)Cc2ccccc2-3)s1 | > 80 µM (inactive) |
| COc1ccc2c(c1)NC(c1cc(Cl)cc(Cl)c1O)c1cccn1-2 (centres undefined) | 33.3 µM (inactive) |
| O=c1oc(CCCO)cc2ccc(/C=C/c3cccc([N+](=O)[O-])c3)cc12 | 36.8 µM (inactive) |
| CC(C)(C)C(=O)NC(=S)NNC(=O)c1ccc(-c2ccccc2)cc1 | 9.38 µM |
| Cc1ccc(Cn2c(=O)n(-c3ccccc3)c(=O)c3ccc(C(=O)NCc4ccco4)cc32)cc1 | > 80 µM (inactive) |
| OCCNc1nc(Nc2ccc(Cl)c(Cl)c2)nc2ccccc12 | > 80 µM (inactive) |
| COc1cc(SC#N)ccc1N=Cc1c(C)[nH]n(-c2ccc(Cl)cc2)c1=O | > 80 µM (inactive) |
| CCOc1cccc(C(=O)Nc2cccc(-c3nnc(-c4ccc(C)cc4)o3)c2)c1 | > 80 µM (inactive) |
| CCOC(=O)c1ccc(-c2ccc(/C=N/NC(=O)CN(c3cccc(C)c3)S(C)(=O)=O)o2)cc1 | 18.2 µM |
| CN(/N=C\c1ccc(O)c(O)c1)c1nc(-c2ccccc2)cc(-c2ccccc2)n1 | 8.69 µM |

| Structure (SMILES) | EC50 |
| --- | --- |
| O=C(Nc1nc2ccc(Cl)cc2s1)c1ccc(N2CCCCC2)c([N+](=O)[O-])c1 | > 80 µM (inactive) |
| O=C(NCCCn1ccnc1)c1nn2c(C(F)(F)F)cc(-c3ccc(Br)cc3)nc2c1Cl | 21.6 µM (inactive) |
| CCN(CC)c1ccc(-c2nn3c(-c4ccccc4OC)nnc3s2)cc1 | > 80 µM (inactive) |
| CCOC(=O)Cc1csc(/N=C/c2c(O)n(-c3ccc(C)c(C)c3)c(=O)c3ccccc23)n1 | > 80 µM (inactive) |
| Cc1cc(N2CCN(c3ccc([N+](=O)[O-])c4cccnc34)CC2)c2ccccc2n1 | 21.4 µM (inactive) |
| O=C(N/N=C/c1ccc(Cl)cc1)c1sccc1OCc1ccc(F)cc1 | 49.3 µM (inactive) |
| CCCCNC(=O)c1ccc(Cn2c(=S)[nH]c3c([nH]c4ccc(OC)cc43)c2=O)cc1 | > 80 µM (inactive) |
| C=C(C)[C@@]12OC3(c4ccccc4)O[C@@H]1C1[C@@H]4O[C@]4(CO)[C@@H](O)[C@]4(O)C(=O)C(C)=C[C@H]4[C@@]1(O3)[C@H](C)[C@H]2OC(=O)/C=C/C=C/c1ccccc1 (some centres undefined) | 39.1 µM (inactive) |
| CC1CCc2cc(F)ccc2N1C(=O)CSc1nnc2c(n1)[nH]c1ccc(F)cc12 (centres undefined) | > 80 µM (inactive) |
| Cc1ccc(Nc2nc(NCCO)c3ccccc3n2)cc1C | > 80 µM (inactive) |
| Cc1ccc(-n2nc3cc(C)c(NC(=S)NC(=O)/C=C/c4ccco4)cc3n2)cc1 | 35.9 µM (inactive) |
| Cn1cc(/C=C(\C#N)C(=O)Nc2cccc([N+](=O)[O-])c2)c2ccccc21 | > 80 µM (inactive) |
| Cc1ccc(-c2nnc(-c3ccc(NC(=O)c4cccs4)cc3)o2)cc1 | 15.9 µM |
| COc1ccc(/C=N/Nc2nnc(-c3ccccc3)c(=O)[nH]2)cc1 | 19.8 µM |
| OC(CNCC1CCCO1)Cn1c2ccc(Br)cc2c2cc(Br)ccc21 (centres undefined) | > 80 µM (inactive) |
| Cc1cc(NC(=O)CSc2nc3cc(Cl)ccc3c(=O)n2Cc2ccco2)no1 | > 80 µM (inactive) |
| Cn1nnnc1Sc1ncnc2scc(-c3ccc(Cl)cc3)c12 | > 80 µM (inactive) |
| CCc1nc(N=Nc2c(O)[nH]c3ccccc23)c2c3c(sc2n1)CCC3 | 16.1 µM |
| COc1ccccc1N=Cc1c(O)c2ccccc2oc1=O | 16.4 µM |
| Cc1ccc(S(=O)(=O)Cc2cc(F)c([N+](=O)[O-])cc2[N+](=O)[O-])cc1 | > 80 µM (inactive) |
| O=C(Nc1ccc([N+](=O)[O-])cc1)C(Cc1ccccc1)N1C(=O)c2cccc3cccc(c23)C1=O (centres undefined) | 27 µM (inactive) |
| O=[N+]([O-])c1ccc(N/N=C/c2ccc(OCc3cccc4ccccc34)cc2)nc1 | > 80 µM (inactive) |
| O=C1NC(=O)C(=Cc2cn(CCOc3ccc4c(c3)OCO4)c3ccccc23)C(=O)N1 | 31.2 µM (inactive) |

| Structure (SMILES) | EC50 |
| --- | --- |
| O=C(Oc1ccccc1/C=C\C(=O)c1cc2ccccc2o1)c1cccc(F)c1 | > 80 µM (inactive) |
| CSc1ccccc1NC(=O)c1cc(-c2cccnc2)nc2ccc(Br)cc12 | > 80 µM (inactive) |
| COc1cc(SC#N)ccc1N=Cc1c(C)[nH]n(-c2ccc(C)c(C)c2)c1=O | > 80 µM (inactive) |
| CCOc1ccc(-n2c(C)cc(C(=O)CCl)c2C)cc1 | 8.94 µM |
| C=CCN=C1S/C(=C/c2cccc([N+](=O)[O-])c2)C(=O)N1CC=C | > 80 µM (inactive) |
| CCc1ccc(-c2nc(CN3CCC(C(=O)NCCN(CC)c4ccccc4)CC3)c(C)o2)cc1 | > 80 µM (inactive) |
| C[C@H]1[C@H](C)CC[C@]2(C(=O)O)CC[C@]3(C)C(=CC[C@@H]4[C@@]5(C)C[C@@H](O)[C@H](O)C(C)(C)[C@@H]5CC[C@]43C)[C@H]12 | > 80 µM (inactive) |
| Cc1ccc2nc(NC(=O)c3ccc(-c4nc5ccccc5s4)s3)sc2c1 | > 80 µM (inactive) |
| COc1ccc(N2CCN(Cc3cc(=O)oc4cc(-c5ccccc5)c(O)cc34)CC2)cc1 | > 80 µM (inactive) |
| CCCCC1CCC(C(=O)N(CC(C)C)c2c(N)n(CCCC)c(=O)[nH]c2=O)CC1 (centres undefined) | > 80 µM (inactive) |
| CN(C)CC(CCC(CN(C)C)C(O)(c1ccccc1)c1ccccc1)C(O)(c1ccccc1)c1ccccc1 (centres undefined) | > 80 µM (inactive) |
| OCCCn1c(C2CCCN2c2nc(-c3ccc(F)cc3)cs2)nc2cc(Cl)c(N3CCCCC3)cc21 (centres undefined) | > 80 µM (inactive) |
| CC(=O)c1cccc(N=Cc2c(O)c3ccccc3oc2=O)c1 | > 80 µM (inactive) |
| COC(=O)c1ccc(COc2ccccc2/C=C(\C#N)C(=O)Nc2c(C)cccc2C)cc1 | > 80 µM (inactive) |
| O=C(C[C@H]1C/C=C\C[C@@H](NC(=O)OCC2c3ccccc3-c3ccccc32)C(=O)O[C@@H](c2ccccc2)CNC1=O)N[C@H](CO)Cc1ccccc1 | 20 µM |
| CCCCCCCCCCOC(=O)Cn1c(COc2ccccc2C)[n+](C)c2ccccc21 | > 80 µM (inactive) |
| COc1cc(/C=C/c2ccc3cccc(O)c3n2)ccc1O | > 80 µM (inactive) |
| CCC1CCc2c(sc3nc(SCC(=O)NCc4ccco4)n(-c4ccccc4)c(=O)c23)C1 (centres undefined) | > 80 µM (inactive) |
| CCN(CC)CCn1c(SCC(=O)Nc2ccc(F)cc2)nc2c(sc3ccccc32)c1=O | > 80 µM (inactive) |
| COc1ccc(/C=N/NC(=O)c2cccc([N+](=O)[O-])c2)c2ccccc12 | > 80 µM (inactive) |
